Legend:
Escherichia coli = test: Antimicrobial assessment of embedded polyester fabric on mineral salts agar; type: cell-based; conditions: agent embedded in three polyester fabrics ("144×90", "Spandex" 5% lycra with polyester, "Darlington"), incubated at 28° C. for 28 days
Description: (§1) Three types of polyester fabric are embedded with bis-1′,3′-(1-hexadecyl)-1,4-diazoniabicyclo[2.2.2]octane-2′-propanol tetrachloride. Three polyester samples supplied by Gar are tested—a) “144×90”, b) “Spandex” which is 5% lycra with polyester, and c) “Darlington.” Each fabric sample is placed onto a mineral salts agar medium and then inoculated with either Staphylococus aureus or Escherichia coli. The inoculated specimen is then incubated at 28° C. for 28 days, in order to allow adequate time for bacterial growth. The fabric samples show a complete kill of both Staphylococus aureus and Escherichia coli.

Staphylococus aureus = test: as above; type: cell-based; conditions: agent embedded in three polyester fabrics ("144×90", "Spandex" 5% lycra with polyester, "Darlington"), incubated at 28° C. for 28 days
Description: as §1

[1] = Antimicrobial property of PVC surface with embedded agent; conditions: agent added to PVC heated to 350° F., 10 g/square meter of finished surface; after pressing and cooling
Description: To a preparation of PVC prepared for finishing and heated to 350° F. is added the agent bis-1′,3′-(1-hexadecyl)-1,4-diazoniabicyclo[2.2.2]octane-2′-propanol tetrachloride in an amount of 10 g/square meter of finished surface. After pressing and cooling samples the surface is antimicrobial.

## CCCCCCCCCCCCCCCC[N+]12CC[N+](CC(O)C[N+]34CC[N+](CCCCCCCCCCCCCCCC)(CC3)CC4)(CC1)CC2.[Cl-].[Cl-].[Cl-].[Cl-] (stereo not drawn) [bis-1′,3′-(1-hexadecyl)-1,4-diazoniabicyclo[2.2.2]octane-2′-propanol tetrachloride]
Escherichia coli
  kill of Escherichia coli on embedded fabric samples: complete kill
Staphylococus aureus
  kill of Staphylococus aureus on embedded fabric samples: complete kill
[1]
  antimicrobial property of the surface: antimicrobial
